In US5279956A, “Activated protein C polypeptides and anti-peptide antibodies, diagnostic methods and systems for inhibiting activated protein C” (The Scripps Research Institute, priority 1991, dated 1994):
No end group written: not given here.

Experiments:
APC [1] = biological target: T1, APC (Homo sapiens, UniProt P04070); experiment: Amidolytic activity of APC towards chromogenic substrate S-2366; type: biochemical; settings: for effect on APC amidolytic activity towards S-2366: all concentrations up to 500 μM
T1 construct: begins at amino acid residue position 158 and ends at 419; The light chain is 155 amino acid residues in length; tissue Factor IX concentrate from Immuno AG, Vienna; thrombin from Enzyme Research Laboratories
T1 sequence (P04070 212-461): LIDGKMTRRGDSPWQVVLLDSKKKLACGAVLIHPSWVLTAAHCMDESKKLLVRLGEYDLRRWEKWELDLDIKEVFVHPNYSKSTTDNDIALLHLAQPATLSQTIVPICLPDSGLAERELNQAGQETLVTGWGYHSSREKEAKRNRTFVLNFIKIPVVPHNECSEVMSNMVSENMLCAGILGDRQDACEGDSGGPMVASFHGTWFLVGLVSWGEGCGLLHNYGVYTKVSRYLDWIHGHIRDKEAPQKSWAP
T1 sequence (P04070 43-197): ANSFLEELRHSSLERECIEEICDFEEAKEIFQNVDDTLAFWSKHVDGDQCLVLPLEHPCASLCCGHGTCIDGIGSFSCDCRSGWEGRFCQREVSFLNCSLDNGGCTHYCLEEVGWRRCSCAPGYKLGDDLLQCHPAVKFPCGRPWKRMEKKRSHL
Protocol: The effects of PC-derived inhibitory synthetic peptides on the amidolytic activity of APC were evaluated to determine if the peptides inhibited APC anticoagulant activity by blocking a region in or close to the active site of the enzyme involved in cleavage of a small substrate such as S-2366 (Kabi-Vitrum) or involved in the site of interaction with the recombinant mutant (Arg^358)α1 -antitrypsin (α1 -AT) (Transgene, Strasbourg, France), the latter of which is described in Example 5a4) below. The assay was performed as described by Marlar et al., supra; and Suzuki et al., supra.
The amidolytic activity of APC toward the peptide substrate S-2366 was measured in the presence of various PC synthetic peptides prepared in Example 1. For the assay, 100 μl of 15 nM APC, prepared in Example 2c2), was admixed with separate aliquots of peptide-(390-404) ranging in concentration from 0.0 to 750 μM prepared in TBS-BSA at pH 7.4 containing 0.02% NaN3 and 2 mM CaCl2 to form APC-peptide admixtures, respectively. After maintenance of the admixtures for 30 minutes at 37° C., 50 μl of 2.4 mM S-2366 in the same buffer was admixed to initiate the amidolytic reaction. The hydrolysis of the substrate was monitored by the change in absorbance at 405 nm at 37° C. over time using an EL312 Microplate Bio-Kinetics Reader (BIO-TEK Instruments, Inc. Vt.).
The amidolytic activity of APC toward the peptide substrate S-2366 was measured in the presence of anti-(390-404) antibody. For the assay, 100 μl of 15 nM APC, prepared in Example 2c2), were admixed with separate aliquots of anti-(390-404) antibody ranging in concentration from 0.0 to 500 nM prepared in TBS-BSA at pH 7.4 containing 0.02% NaN3 and 2 mM CaCl2 to form APC-anti-(390-404) antibody immunoreaction admixtures, respectively. After maintenance of the admixtures for 30 minutes at 37° C. to allow formation of immunoreaction products, 50 μl of 2.4 mM S-2366 in the same buffer was admixed to initiate the amidolytic reaction. The hydrolysis of the substrate was monitored by the change in absorbance at 405 nm over time using an EL312 Microplate Bio-Kinetics Reader (BIO-TEK Instruments, Inc. Vt.).

APC [2] = biological target: T1, APC; experiment: Xa-1-stage coagulation assay of APC anticoagulant activity; type: biochemical
Protocol: For testing the inhibition of the synthetic peptides on APC activity described above, Xa-1-stage coagulation assays were also performed as described. See Seegers et al., Thrombosis Res., 13:233-243 (1978); Marlar et al., supra; and Walker et al., J. Biol. Chem. 265:1484-1489 (1990). […] The resulting admixtures were maintained for seven minutes at 37° C. Separate aliquots of peptides maintained under the same conditions in the absence of APC served as controls for the inhibitory effect of synthetic peptides on APC anticoagulant activity. After the maintenance period, 100 μl of NHP and 100 μl of 200 μg/ml of rabbit brain cephalin (Sigma) were admixed into each peptide admixture and maintained for 200 seconds at 37° C. to form pre-coagulation admixtures. In some experiments, Factor VIII deficient plasma (George King Bio-Medical, Inc.) was used in the place of NHP to determine the effect of Factor VIII on the assay system. Coagulation was then initiated by the admixture of 100 μl of 0.62 nM human activated Factor X (Xa) (Enzyme Research Laboratories, Southbend, Ind.) in TBS-BSA containing 30 mM CaCl2 prewarmed to 37° C. to each of the pre-coagulation admixtures.
The time for clot formation was measured by an Electra 700 Automatic Coagulation Timer (Medical Laboratory Automation, Inc., Mount Vernon, N.Y.). Each peptide's effect was determined in duplicate. The results of the inhibition of APC anticoagulant activity by synthetic peptides as measured in Xa-1-stage coagulation assays are described above and are presented as the mean values obtained with […].
Additional assays were performed to compare the specificity of the inhibitory effect of peptide-(390-404) on APC anticoagulant activity. Both APTT and Xa-1-stage assays were performed with peptide-(390-404) and with the same peptide synthesized in the reverse order, peptide-(404-390), at concentrations of the peptides ranging from 0 μM to 40 μM. In APTT assays performed as described above in the presence of NHP, APC was used at a concentration of 2.5 nM. […]

Substance: KRNRTFVLNFIKIPV-NH2 [peptide-(311-325), KRNRTFVLNFIKIPV]
- APC amidolytic activity towards S-2366, A405 /5 min (APC [1]; APC + 250 μM peptide): 0.342 A405 /5 min
- effect on APC amidolytic activity towards S-2366 (APC [1]): did not significantly alter
- effect on APC in Xa1-stage assay (APC [2]; up to 100 μM): no effect

Substance: SGLLHNYGVYTKVSR-NH2 [peptide-(384-398), -SGLLHNYGVYTKVSR]
- APC amidolytic activity towards S-2366, A405 /5 min (APC [1]; APC + 500 μM peptide): 0.378 A405 /5 min
- effect on APC amidolytic activity towards S-2366 (APC [1]): did not significantly alter

Substance: YGVYTKVSRYLDWIH-NH2 [peptide-(390-404), YGVYTKVSRYLDWIH]
- IC50 (APC [2]): 5 µM
- IC90 (APC [2]): 40 µM
